{
  "source": "patent US11926841B2",
  "about": "“AAV-based conditional expression system” (priority 2016, dated 2024)",
  "format_in_all_cases": "cell-based",
  "key": {"[1]": {"system": "wild type ACV sensitive HSV-1 laboratory strain", "assay": "AAV replicon based ACV resistance test in LE2D8 cells (GLuc luciferase readout), sensitive HSV-1", "details": "ACV 6-12 μg/mi, MOI 0.035, 48 hpi", "experimental": "The cell line LE2D8 was seeded onto 96-well-plates at density of 3.3×10^4 cell/well. Two hours after seeding the cells were left untreated or were treated with different concentrations of ACV (CAS: 59277-89-3) (ranging from 0.05 to 144 μg/ml). Right after treatment the cells were infected with either a wild type ACV sensitive HSV-1 laboratory strain or an ACV resistant strain (kindly provided from Dr. Gundula Jäger, Max von Pettenkofer-Institute, LMU Munich) using an MOI of 0.035. After only 48 hpi luciferase activity in 20 μl of the supernatant was measured as the previous experiments. The luciferase activities of the ACV treated cells were compared to the luciferase activities obtained after infection of the non-treated cells. The luciferase induction of the non-treated cells was set 100% and the activity of the ACV treated cells was depicted as % of the non-treated values (FIG. 5A)."}, "[2]": {"system": "ACV sensitive HSV-1 laboratory strain", "assay": "Endpoint dilution assay (TCID50) of supernatants of ACV treated infected LE2D8 cells, sensitive HSV-1", "details": "ACV 1, 6, 12, 48 and 96 μg/ml; counts at day 7", "text": "(§1) For the validation of the new established replicon based assay we made an endpoint-dilution-assay to monitor the amount of the produced viruses in presence of the ACV treatment. This standardised assay for detection of viral growth is very sensitive but very time consuming since 5-7 days are required to obtain the results. To test the virus production in our assay condition with the standard method the sensitive and ACV-resistant HSV-1 containing assay supernatants of the infected LE2D8 cells treated with different concentrations of ACV (n.t., 1, 6, 12, 48 and 96 μg/ml) were collected. Subsequently endpoint dilution assays were performed using HEK-cells in a 96 well plate format. The Tissue Culture Infection Dose 50 (TCID50) was calculated after collecting the infectivity counts at day 7 (FIG. 5B)."}, "ACV-resistant HSV-1": {"system": "ACV-resistant HSV-1", "assay": "Endpoint dilution assay (TCID50) of supernatants of ACV treated infected LE2D8 cells, resistant HSV-1", "details": "ACV 1, 6, 12, 48 and 96 μg/ml; counts at day 7", "text": "as §1"}, "[3]": {"system": "ACV sensitive HSV-2 isolate", "assay": "AAV replicon based resistance test with clinical HSV-2 isolates, sensitive isolate", "details": "ACV 20 μM and higher; LE2D8 cells; 48 hpi", "experimental": "(§2) For testing the single HSV-2 virus isolates, LE2D8 were seeded to 3.3×10^4 cells in a 96 well format, 2 hours before treatment with 0.8, 4, 20, 100 and 500 μM ACV and infection with 1:10 diluted HSV-2 isolates, always using technical triplicates. After 48 hpi, GLuc activity in the supernatant was measured by luminometry and values were compared to non-treated and mock infected cells as above. In FIGS. 6A and 6B we show example of the replicon response induced by an ACV sensitive HSV2- and one of an ACV resistant HSV-2 isolate."}, "[4]": {"system": "ACV resistant HSV-2 isolate", "assay": "AAV replicon based resistance test with clinical HSV-2 isolates, resistant isolate", "details": "ACV 0.8, 4, 20, 100 and 500 μM; LE2D8 cells; 48 hpi", "experimental": "as §2"}},
  "data": [
    {"smiles": "Nc1nc2c(ncn2COCCO)c(=O)[nH]1", "note": "[ACV, Aciclovir]", "values": [
      {"measurement": "luciferase activity, % of non-treated cells", "setting": "[1]", "result": 20, "unit": "%"},
      {"measurement": "virus replication under ACV treatment (TCID50, endpoint dilution)", "setting": "[2]", "result": "indeed inhibited by ACV treatment"},
      {"measurement": "virus replication under ACV treatment (TCID50, endpoint dilution)", "setting": "ACV-resistant HSV-1", "result": "could not inhibit the replication"},
      {"measurement": "GLuc activity compared to non-treated cells", "setting": "[3]", "result": "decreasing amounts of GLuc activity"},
      {"measurement": "GLuc induction, % of the non-treated values", "setting": "[4]", "result": "≥ 50", "unit": "%"}
    ]}
  ]
}
